Tests used:
[1] = Particle size distribution, Malvern Hydro2000S (A); type: physicochemical; conditions: crystals of Example 1, seeded crystallisation from acetone, no milling
Experimental: The particle size distribution of olmesartan medoxomil (I) is measured utilizing: Instrument model: Malvern; Dispersion unit: Hydro2000S (A); Particle refraction index of sample: 1.427; Absorption: 0.1; Dispersant refraction index: 1.468 and Size range: 0.020-2000 μm.

[2] = Minimum ignition energy and powder resistivity of the powder; type: physicochemical; conditions: observed by the present inventors; process safety for milling

Which “particle size distribution d10” value [1] does the source give for `CCCc1nc(C(C)(C)O)c(C(=O)OCc2oc(=O)oc2C)n1Cc1ccc(-c2ccccc2-c2nnn[nH]2)cc1` [olmesartan medoxomil, 4-(1-hydroxy-1-methylethyl)-2-propyl-1-[[2′-(1H-tetrazol-5-yl) [1, 1′-biphenyl]-4-yl]methyl]-1H-imidazole-5-carboxylic acid (5-methyl-2-oxo-1,3-dioxol-4-yl)methyl ester] here?
Its value is 0.984 μm.

And the “particle size distribution d50” value [1]?
The value was 8.484 μm.

What about the “particle size distribution d90” value [1] of the same compound?
Its value is 18.756 μm.

And the minimum ignition energy [2]?
Its minimum ignition energy is “less than 3 mJ”.

And the powder resistivity [2]?
Its powder resistivity is “very high”.
